{
  "source": "patent US11793849B2",
  "about": "“Method of Chinese herbal medicine extract used for treating multiple diseases caused by drug resistant bacteria infection” (priority 2016, dated 2023)",
  "key": {"MDRAB": {"tested_on": "MDRAB", "test": "MIC determination, microdilution broth method", "format": "cell-based, Acinetobacter baumannii", "conditions": "for MIC: read-out: MIC"}, "ATCC27853": {"tested_on": "ATCC27853", "test": "MIC determination, control strain", "format": "cell-based"}, "MDRPA": {"tested_on": "MDRPA", "test": "Checkerboard assay (combined-use MIC, FIC)", "format": "cell-based, Pseudomonas aeruginosa", "conditions": "for FIC, all strains / MIC50 of the antibiotic after combined use / MIC90 of the antibiotic after combined use / reduction of the antibiotic's MIC50 vs single use / reduction of the antibiotic's MIC90 vs single use / share of strains with FIC ≤ 0.5: 20 MDRPAs; for combined-use MIC: EA (P. clypearia water extract) combined with IMP", "experimental": "Test methods of the sensibilization effects of the test product to similar antibiotics: it is operated by referring to a checkerboard assay recommended by NCCLS.\nThe checkerboard assay is performed in a 96-pore sterile culture plate.\nCalculation of a Fractional Inhibitory Concentration (FIC): FIC=S20b combined-use MIC/S20b single-use MIC+antibiotic combined-use MIC/antibiotic single-use MIC. By calculating the FIC, the combined antibacterial interaction between the EA and the antibiotic is evaluated, with synergistic effect for FIC≤0.5, additive effect for 0.5<FIC≤1, indifferent effect for 1<FIC≤2 and antagonistic effect for FIC>2. According to a sterile growth pore, the optimum concentration ratio between the EA and the antibiotic is founded out. At last, the effect of the EA to strengthen the efficacy of the antibiotic is evaluated."}, "[1]": {"conditions": "single use, 20 MDRABs, EA=10% ethanol extract"}, "[2]": {"conditions": "single use, 20 MDRABs, EA=water extract"}, "[3]": {"conditions": "single use, 20 MDRABs, section of the 95% ethanol extract"}, "[4]": {"conditions": "antibiotic with 10% ethanol extract"}, "[5]": {"conditions": "antibiotic with 60% ethanol extract"}, "[6]": {"conditions": "antibiotic with 95% ethanol extract"}, "[7]": {"conditions": "antibiotic with EA (water extract)"}},
  "note": "Like-named read-outs stand apart in the source and are kept apart here.",
  "data": [
    {"compound": "C[C@@H](O)[C@H]1C(=O)N2C(C(=O)O)=C(SCCN=CN)C[C@H]12", "note": "[IMP, imipenem]", "values": [
      {"measurement": "MIC", "setting": "MDRAB; Acinetobacter baumannii, strain A19, single use, EA=10% ethanol extract", "result": 32, "unit": "µg/mL"},
      {"measurement": "MIC", "setting": "MDRAB; Acinetobacter baumannii, strain A19, single use, EA=water extract", "result": 32, "unit": "µg/mL"},
      {"measurement": "MIC", "setting": "MDRAB; Acinetobacter baumannii, strain A20, EA=60% ethanol extract", "result": 32, "unit": "µg/mL"},
      {"measurement": "MIC", "setting": "MDRAB; Acinetobacter baumannii, strain A20, EA=95% ethanol extract", "result": 32, "unit": "µg/mL"},
      {"measurement": "MIC", "setting": "MDRAB; Acinetobacter baumannii, strain A20, single use, EA=10% ethanol extract", "result": 32, "unit": "µg/mL"},
      {"measurement": "MIC", "setting": "MDRAB; Acinetobacter baumannii, strain A20, single use, EA=water extract", "result": 32, "unit": "µg/mL"},
      {"measurement": "MIC50", "setting": "MDRAB; Acinetobacter baumannii, single use, 20 MDRABs, section of the 60% ethanol extract, read-out: MIC50", "result": 32, "unit": "µg/mL"},
      {"measurement": "MIC90", "setting": "MDRAB; Acinetobacter baumannii, single use, 20 MDRABs, section of the 60% ethanol extract, read-out: MIC90", "result": 32, "unit": "µg/mL"},
      {"measurement": "MIC50", "setting": "MDRAB; MDRABs, EA=60% ethanol extract", "result": 32, "unit": "µg/mL"},
      {"measurement": "MIC90", "setting": "MDRAB; MDRABs, EA=60% ethanol extract", "result": 32, "unit": "µg/mL"},
      {"measurement": "MIC Range", "setting": "MDRAB; MDRABs, EA=60% ethanol extract", "result": "1 to 32", "unit": "µg/mL"},
      {"measurement": "MIC50", "setting": "MDRAB; MDRABs, EA=95% ethanol extract", "result": 32, "unit": "µg/mL"},
      {"measurement": "MIC90", "setting": "MDRAB; MDRABs, EA=95% ethanol extract", "result": 32, "unit": "µg/mL"},
      {"measurement": "MIC Range", "setting": "MDRAB; MDRABs, EA=95% ethanol extract", "result": "1 to 32", "unit": "µg/mL"},
      {"measurement": "MIC50", "setting": "MDRAB; [1]", "result": 32, "unit": "µg/mL"},
      {"measurement": "MIC90", "setting": "MDRAB; [1]", "result": 32, "unit": "µg/mL"},
      {"measurement": "MIC Range", "setting": "MDRAB; [1]", "result": "1 to 32", "unit": "µg/mL"},
      {"measurement": "MIC50", "setting": "MDRAB; [2]", "result": 32, "unit": "µg/mL"},
      {"measurement": "MIC90", "setting": "MDRAB; [2]", "result": 32, "unit": "µg/mL"},
      {"measurement": "MIC Range", "setting": "MDRAB; [2]", "result": "1 to 32", "unit": "µg/mL"},
      {"measurement": "MIC50", "setting": "MDRAB; [3]", "result": 32, "unit": "µg/mL"},
      {"measurement": "MIC90", "setting": "MDRAB; [3]", "result": 32, "unit": "µg/mL"},
      {"measurement": "MIC", "setting": "ATCC27853; EA=10% ethanol extract, read-out: MIC", "result": 1, "unit": "µg/mL"},
      {"measurement": "MIC", "setting": "ATCC27853; EA=60% ethanol extract, read-out: MIC", "result": 1, "unit": "µg/mL"},
      {"measurement": "MIC", "setting": "ATCC27853; EA=95% ethanol extract, read-out: MIC", "result": 1, "unit": "µg/mL"},
      {"measurement": "MIC", "setting": "ATCC27853; EA=P. clypearia 10% ethanol extract, read-out: MIC (single use)", "result": 4, "unit": "µg/mL"},
      {"measurement": "MIC", "setting": "ATCC27853; EA=P. clypearia water extract, read-out: MIC (single use)", "result": 4, "unit": "µg/mL"},
      {"measurement": "MIC", "setting": "ATCC27853; EA=water extract, read-out: MIC", "result": 1, "unit": "µg/mL"},
      {"measurement": "MIC", "setting": "ATCC27853; single use, EA = 60% ethanol extract, read-out: MIC", "result": 4, "unit": "µg/mL"},
      {"measurement": "MIC", "setting": "ATCC27853; single use, EA = 95% ethanol extract, read-out: MIC", "result": 4, "unit": "µg/mL"},
      {"measurement": "FIC, all strains", "setting": "MDRPA; [4]", "result": "≤ 2"},
      {"measurement": "MIC50 of the antibiotic after combined use", "setting": "MDRPA; [4]", "result": 2, "unit": "µg/mL"},
      {"measurement": "MIC90 of the antibiotic after combined use", "setting": "MDRPA; [4]", "result": 16, "unit": "µg/mL"},
      {"measurement": "reduction of the antibiotic's MIC50 vs single use", "setting": "MDRPA; [4]", "result": 93.75, "unit": "%"},
      {"measurement": "reduction of the antibiotic's MIC90 vs single use", "setting": "MDRPA; [4]", "result": 75, "unit": "%"},
      {"measurement": "share of strains with FIC ≤ 0.5", "setting": "MDRPA; [4]", "result": 50, "unit": "%"},
      {"measurement": "FIC, all strains", "setting": "MDRPA; [5]", "result": "≤ 2"},
      {"measurement": "MIC50 of the antibiotic after combined use", "setting": "MDRPA; [5]", "result": 2, "unit": "µg/mL"},
      {"measurement": "MIC90 of the antibiotic after combined use", "setting": "MDRPA; [5]", "result": 16, "unit": "µg/mL"},
      {"measurement": "reduction of the antibiotic's MIC50 vs single use", "setting": "MDRPA; [5]", "result": 93.75, "unit": "%"},
      {"measurement": "reduction of the antibiotic's MIC90 vs single use", "setting": "MDRPA; [5]", "result": 75, "unit": "%"},
      {"measurement": "share of strains with FIC ≤ 0.5", "setting": "MDRPA; [5]", "result": 15, "unit": "%"},
      {"measurement": "FIC, all strains", "setting": "MDRPA; [6]", "result": "≤ 2"},
      {"measurement": "MIC50 of the antibiotic after combined use", "setting": "MDRPA; [6]", "result": 4, "unit": "µg/mL"},
      {"measurement": "MIC90 of the antibiotic after combined use", "setting": "MDRPA; [6]", "result": 16, "unit": "µg/mL"},
      {"measurement": "reduction of the antibiotic's MIC50 vs single use", "setting": "MDRPA; [6]", "result": 75, "unit": "%"},
      {"measurement": "reduction of the antibiotic's MIC90 vs single use", "setting": "MDRPA; [6]", "result": 75, "unit": "%"},
      {"measurement": "share of strains with FIC ≤ 0.5", "setting": "MDRPA; [6]", "result": 40, "unit": "%"},
      {"measurement": "FIC, all strains", "setting": "MDRPA; [7]", "result": "≤ 2"},
      {"measurement": "MIC50 of the antibiotic after combined use", "setting": "MDRPA; [7]", "result": 2, "unit": "µg/mL"},
      {"measurement": "MIC90 of the antibiotic after combined use", "setting": "MDRPA; [7]", "result": 16, "unit": "µg/mL"},
      {"measurement": "reduction of the antibiotic's MIC50 vs single use", "setting": "MDRPA; [7]", "result": 93.75, "unit": "%"},
      {"measurement": "reduction of the antibiotic's MIC90 vs single use", "setting": "MDRPA; [7]", "result": 75, "unit": "%"},
      {"measurement": "share of strains with FIC ≤ 0.5", "setting": "MDRPA; [7]", "result": 40, "unit": "%"},
      {"measurement": "combined-use MIC", "setting": "MDRPA; strain P1", "result": 16, "unit": "µg/mL"},
      {"measurement": "combined-use MIC", "setting": "MDRPA; strain P2", "result": 2, "unit": "µg/mL"},
      {"measurement": "combined-use MIC", "setting": "MDRPA; strain P3", "result": 2, "unit": "µg/mL"},
      {"measurement": "combined-use MIC", "setting": "MDRPA; strain P4", "result": 2, "unit": "µg/mL"},
      {"measurement": "combined-use MIC", "setting": "MDRPA; strain P5", "result": 16, "unit": "µg/mL"},
      {"measurement": "combined-use MIC", "setting": "MDRPA; strain P6", "result": 2, "unit": "µg/mL"},
      {"measurement": "combined-use MIC", "setting": "MDRPA; strain P7", "result": 2, "unit": "µg/mL"},
      {"measurement": "combined-use MIC", "setting": "MDRPA; strain P8", "result": 2, "unit": "µg/mL"},
      {"measurement": "combined-use MIC", "setting": "MDRPA; strain P9", "result": 16, "unit": "µg/mL"},
      {"measurement": "combined-use MIC", "setting": "MDRPA; strain P10", "result": 16, "unit": "µg/mL"},
      {"measurement": "combined-use MIC", "setting": "MDRPA; strain P11", "result": 4, "unit": "µg/mL"},
      {"measurement": "combined-use MIC", "setting": "MDRPA; strain P12", "result": 2, "unit": "µg/mL"},
      {"measurement": "combined-use MIC", "setting": "MDRPA; strain P13", "result": 2, "unit": "µg/mL"},
      {"measurement": "combined-use MIC", "setting": "MDRPA; strain P14", "result": 4, "unit": "µg/mL"},
      {"measurement": "combined-use MIC", "setting": "MDRPA; strain P15", "result": 8, "unit": "µg/mL"},
      {"measurement": "combined-use MIC", "setting": "MDRPA; strain P16", "result": 2, "unit": "µg/mL"},
      {"measurement": "combined-use MIC", "setting": "MDRPA; strain P17", "result": 4, "unit": "µg/mL"},
      {"measurement": "combined-use MIC", "setting": "MDRPA; strain P18", "result": 4, "unit": "µg/mL"},
      {"measurement": "combined-use MIC", "setting": "MDRPA; strain P19", "result": 4, "unit": "µg/mL"},
      {"measurement": "combined-use MIC", "setting": "MDRPA; strain P20", "result": 2, "unit": "µg/mL"}
    ]}
  ]
}
